In patent US20240140957A1, “BRIDGED COMPOUNDS AS KRAS G12D INHIBITOR AND DEGRADER AND THE USE THEREOF” (BeiGene Switzerland GmbH, priority 2021, published 2024):

Target: GDP-loaded KRAS G12D (Homo sapiens, UniProt P01116, G12D)
Assay: KRAS G12D Probe Displacement Assay
Format: binding
Details: KRAS G12D 0.5 nM, biotinylated probe 2 4 nM; Table 6 letters; read-out: KRAS G12D Probe Displacement Assay IC50 (class)

GDP-loaded KRAS G12D, sequence (P01116 1-188 isoform P01116-2 G12D): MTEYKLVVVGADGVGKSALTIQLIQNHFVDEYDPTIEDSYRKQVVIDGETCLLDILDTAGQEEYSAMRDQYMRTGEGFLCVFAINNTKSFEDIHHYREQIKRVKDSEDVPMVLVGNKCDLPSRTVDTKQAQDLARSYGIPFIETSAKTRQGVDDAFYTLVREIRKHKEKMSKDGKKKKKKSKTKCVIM

IC50 [nM]	Compound
< 50	CC12CC(COc3nc(N4CC5CCC(C4)N5)c4cc(C(F)(F)F)c(-c5ccc(F)c6sc(N)nc56)c(F)c4n3)(CO1)C2 [Example E174, 4-(4-(3,8-diazabicyclo[3.2.1]octan-3-yl)-8-fluoro-2-((1-methyl-2-oxabicyclo[2.1.1]hexan-4-yl)methoxy)-6-(trifluoromethyl)quinazolin-7-yl)-7-fluorobenzo[d] thiazol-2-amine]
< 50	Nc1nc2c(-c3c(C(F)(F)F)cc4c(N5CC6CCC(C5)N6)nc(OCC5(CO)CCOCC5)nc4c3F)ccc(F)c2s1 [Example E187, (4-(((7-(2-amino-7-fluorobenzo[d]thiazol-4-yl)-4-(3,8-diazabicyclo[3.2.1]octan-3-yl)-8-fluoro-6-(trifluoromethyl)quinazolin-2-yl)oxy)methyl)tetrahydro-2H-pyran-4-yl)methanol]
< 50	CC(F)(F)C1(COc2nc(N3CC4CCC(C3)N4)c3cc(C(F)(F)F)c(-c4ccc(F)c5sc(N)nc45)c(F)c3n2)COC1 [Example E180, 4-(4-(3,8-diazabicyclo[3.2.1]octan-3-yl)-2-((3-(1,1-difluoroethyl)oxetan-3-yl)methoxy)-8-fluoro-6-(trifluoromethyl)quinazolin-7-yl)-7-fluorobenzo[d]thiazol-2-amine]
< 50	Cc1cc(N)nc(-c2c(Cl)cc3c(N4CC5CCC(C4)N5)nc(OCC45COC(C4)C5)nc3c2F)c1C(F)(F)F [Example E224, 6-(2-((2-oxabicyclo[2.1.1]hexan-4-yl)methoxy)-4-(3,8-diazabicyclo[3.2.1]octan-3-yl)-6-chloro-8-fluoroquinazolin-7-yl)-4-methyl-5-(trifluoromethyl)pyridin-2-amine]
< 50	Nc1nc2c(-c3c(C(F)(F)F)cc4c(N5CC6CCC(C5)N6)nc(OCC5CCCOC5)nc4c3F)ccc(F)c2s1 (stereo not drawn) [Example E216, 4-(4-(3,8-diazabicyclo[3.2.1]octan-3-yl)-8-fluoro-2-((tetrahydro-2H-pyran-3-yl)methoxy)-6-(trifluoromethyl)quinazolin-7-yl)-7-fluorobenzo[d]thiazol-2-amine]
< 50	Nc1nc2c(-c3c(C(F)(F)F)cc4c(N5CC6CCC(C5)N6)nc(OCC5(CO)CCCCC5)nc4c3F)ccc(F)c2s1 [Example E191, (1-(((7-(2-amino-7-fluorobenzo[d]thiazol-4-yl)-4-(3,8-diazabicyclo[3.2.1]octan-3-yl)-8-fluoro-6-(trifluoromethyl)quinazolin-2-yl)oxy)methyl)cyclohexyl) methanol]
50 to 100	Cc1cc(N)nc(-c2c(Cl)cc3c(N4CC5CCC(C4)N5)nc(OCC4(C)CCOC4)nc3c2F)c1C(F)(F)F (stereo not drawn) [Example E203, 6-(4-(3,8-diazabicyclo[3.2.1]octan-3-yl)-6-chloro-8-fluoro-2-((3-methyltetrahydrofuran-3-yl)methoxy)quinazolin-7-yl)-4-methyl-5-(trifluoromethyl)pyridin-2-amine]
< 50	Cc1cc(N)nc(-c2c(Cl)cc3c(N4CC5CCC(C4)N5)nc(OCC4(CO)CCOCC4)nc3c2F)c1C(F)(F)F [Example E196, (4-(((7-(6-amino-4-methyl-3-(trifluoromethyl)pyridin-2-yl)-4-(3,8-diazabicyclo[3.2.1]octan-3-yl)-6-chloro-8-fluoroquinazolin-2-yl)oxy)methyl)tetrahydro-2H-pyran-4-yl)methanol]
< 50	N#Cc1cncc(CCOc2nc(N3CC4CCC(C3)N4)c3cc(C(F)(F)F)c(-c4ccc(F)c5sc(N)nc45)c(F)c3n2)c1 [Example E188, 5-(2-((7-(2-amino-7-fluorobenzo[d]thiazol-4-yl)-4-(3,8-diazabicyclo[3.2.1]octan-3-yl)-8-fluoro-6-(trifluoromethyl)quinazolin-2-yl)oxy)ethyl) nicotinonitrile]
< 50	Cc1cc(N)nc(-c2c(Cl)cc3c(N4CC5CCC(C4)N5)nc(OCC4(CO)CC(F)C4)nc3c2F)c1C(F)(F)F (stereo not drawn) [Example E227, (1-(((7-(6-amino-4-methyl-3-(trifluoromethyl)pyridin-2-yl)-4-(3,8-diazabicyclo[3.2.1]octan-3-yl)-6-chloro-8-fluoroquinazolin-2-yl)oxy)methyl)-3-fluorocyclobutyl)methanol]
< 50	CN1CCCC(C#N)(COc2nc(N3CC4CCC(C3)N4)c3cc(Cl)c(-c4ccc(F)c5sc(N)nc45)c(F)c3n2)C1 (stereo not drawn) [Example E178, 3-(((7-(2-amino-7-fluorobenzo[d]thiazol-4-yl)-4-(3,8-diazabicyclo [3.2.1]octan-3-yl)-6-chloro-8-fluoroquinazolin-2-yl)oxy)methyl)-1-methylpiperidine-3-carbonitrile]
< 50	Cc1cc(N)nc(-c2c(Cl)cc3c(N4CC5CCC(C4)N5)nc(OCC4(CO)CCC4)nc3c2F)c1C(F)(F)F [Example E200, (1-(((7-(6-amino-4-methyl-3-(trifluoromethyl)pyridin-2-yl)-4-(3,8-diazabicyclo[3.2.1]octan-3-yl)-6-chloro-8-fluoroquinazolin-2-yl)oxy)methyl)cyclobutyl) methanol]
< 50	CO[C@@H]1CC[C@H]1COc1nc(N2CC3CCC(C2)N3)c2cc(C(F)(F)F)c(-c3ccc(F)c4sc(N)nc34)c(F)c2n1 [Example E168, 4-(4-(3,8-diazabicyclo[3.2.1]octan-3-yl)-8-fluoro-2-(((1S,2R)-2-methoxycyclobutyl)methoxy)-6-(trifluoromethyl)quinazolin-7-yl)-7-fluorobenzo[d]thiazol-2-amine]
< 50	Nc1nc2c(-c3c(C(F)(F)F)cc4c(N5CC6CCC(C5)N6)nc(OCC5CS(=O)(=O)C5)nc4c3F)ccc(F)c2s1 [Example E171]

Second part, the molecule before the results:

Compound	IC50 [nM]
Oc1cc(Cl)c(C(F)(F)F)c(-c2c(Cl)cc3c(N4CC5CCC(C4)N5)nc(OC[C@@]45CCCN4C[C@H](F)C5)nc3c2F)c1 [Example E105, 3-(4-(3,8-diazabicyclo[3.2.1]octan-3-yl)-6-chloro-8-fluoro-2-(((2R,7aS)-2-fluorotetrahydro-1H-pyrrolizin-7a(5H)-yl)methoxy)quinazolin-7-yl)-5-chloro-4-(trifluoromethyl)phenol]	< 50
CN1C[C@H](F)C[C@]1(C)COc1nc(N2CC3CCC(C2)N3)c2cc(C(F)(F)F)c(-c3ccc(F)c4sc(N)nc34)c(F)c2n1 [Example E103, 4-(4-(3,8-diazabicyclo[3.2.1]octan-3-yl)-8-fluoro-2-(((2R,4R)-4-fluoro-1,2-dimethylpyrrolidin-2-yl)methoxy)-6-(trifluoromethyl)quinazolin-7-yl)-7-fluorobenzo [d]thiazol-2-amine]	< 50
Nc1nc2c(-c3c(C(F)(F)F)cc4c(N5CC6CCC(C5)N6)nc(OCC56CC(CO)(C5)C6)nc4c3F)ccc(F)c2s1 [Example E162, (3-(((7-(2-amino-7-fluorobenzo[d]thiazol-4-yl)-4-(3,8-diazabicyclo[3.2.1]octan-3-yl)-8-fluoro-6-(trifluoromethyl)quinazolin-2-yl)oxy)methyl)bicyclo[1.1.1]pentan-1-yl)methanol]	< 50
Nc1nc2c(-c3c(C(F)(F)F)cc4c(N5CC6CCC(C5)N6)nc(OCC(O)CO)nc4c3F)ccc(F)c2s1 (stereo not drawn) [Example E141, 3-((7-(2-amino-7-fluorobenzo[d]thiazol-4-yl)-4-(3,8-diazabicyclo [3.2.1]octan-3-yl)-8-fluoro-6-(trifluoromethyl)quinazolin-2-yl)oxy)propane-1,2-diol]	< 50
COC1CC(Oc2nc(N3CC4CCC(C3)N4)c3cc(C(F)(F)F)c(-c4ccc(F)c5sc(N)nc45)c(F)c3n2)C1 (stereo not drawn) [Example E167, 4-(4-(3,8-diazabicyclo[3.2.1]octan-3-yl)-8-fluoro-2-(3-methoxycyclobutoxy)-6-(trifluoromethyl)quinazolin-7-yl)-7-fluorobenzo[d]thiazol-2-amine]	50 to 100
Oc1cc(F)c(C(F)(F)F)c(-c2c(F)cc3c(N4CC5CCC(C4)N5)nc(OC[C@@]45CCCN4C[C@H](F)C5)nc3c2F)c1 [Example E110, 3-(4-(3,8-diazabicyclo[3.2.1]octan-3-yl)-6,8-difluoro-2-(((2R,7aS)-2-fluorotetrahydro-1H-pyrrolizin-7a(5H)-yl)methoxy)quinazolin-7-yl)-5-fluoro-4-(trifluoromethyl)phenol]	< 50
CN1C[C@H](F)C[C@]1(C)COc1nc(N2C3CNCC2COC3)c2cc(C(F)(F)F)c(-c3ccc(F)c4sc(N)nc34)c(F)c2n1 [Example E122, 4-(4-(3-oxa-7,9-diazabicyclo[3.3.1]nonan-9-yl)-8-fluoro-2-(((2R,4R)-4-fluoro-1,2-dimethylpyrrolidin-2-yl)methoxy)-6-(trifluoromethyl)quinazolin-7-yl)-7-fluorobenzo[d]thiazol-2-amine]	< 50
Cc1cc(N)c(C#N)c(-c2c(Cl)cc3c(N4CC5CCC(C4)N5)nc(OC[C@@]45CCCN4C[C@H](F)C5)nc3c2F)c1I [Example E118, 2-(4-(3,8-diazabicyclo[3.2.1]octan-3-yl)-6-chloro-8-fluoro-2-(((2R,7aS)-2-fluorotetrahydro-1H-pyrrolizin-7a(5H)-yl)methoxy)quinazolin-7-yl)-6-amino-3-iodo-4-methylbenzonitrile]	< 50
Nc1nc2c(-c3c(C(F)(F)F)cc4c(N5[C@@H]6CC[C@H]5C(NCCC(F)F)C6)nc(OC[C@@]56CCCN5C[C@H](F)C6)nc4c3F)ccc(F)c2s1 (stereo partly drawn) [Example E95, 4-(4-((1S,4R)-2-((3,3-difluoropropyl)amino)-7-azabicyclo [2.2.1]heptan-7-yl)-8-fluoro-2-(((2R,7As)-2-fluorotetrahydro-1H-pyrrolizin-7a(5H)-yl)methoxy)-6-(trifluoromethyl)quinazolin-7-yl)-7-fluorobenzo[d]thiazol-2-amine]	< 50
Nc1nc2c(-c3c(C(F)(F)F)cc4c(N5CC6CCC(C5)N6)nc(OCC5(CO)CC(F)C5)nc4c3F)ccc(F)c2s1 (stereo not drawn) [Example E158, (1-(((7-(2-amino-7-fluorobenzo[d]thiazol-4-yl)-4-(3,8-diazabicyclo[3.2.1]octan-3-yl)-8-fluoro-6-(trifluoromethyl)quinazolin-2-yl)oxy)methyl)-3-fluorocyclobutyl)methanol]	< 50
